The assay addresses T1, PelD^Bc (PelD^Bc150-407; also PelD^Bc170-403).
T1 construct: gene BCE_5583
Particulars: 20 mM HEPES pH 8.0, 150 mM NaCl, 5% glycerol, 1 mM DTT; 25 μM protein, 450 μM c-di-GMP in syringe; single-site model; proposed I-site (RxxD).

As a reminder, the Kd is the equilibrium constant for the complex coming apart. The compound `Nc1nc2c(ncn2[C@@H]2O[C@@H]3COP(=O)(O)O[C@H]4[C@@H](O)[C@H](n5cnc6c(=O)[nH]c(N)nc65)O[C@@H]4COP(=O)(O)O[C@H]3[C@H]2O)c(=O)[nH]1` [c-di-GMP] came in with a Kd of 103 ± 14 nM.
